Activity calls are given as the source filed them.
Columns and labels:
[1] = A Cell Based Secondary Assay To Explore Cytotoxicity of Compounds that Sensitize Mycobacterium Tuberculosis to Beta-Lactam Antibiotics.; format: functional
cells [2] = format: functional, cell-based
cells [3] = format: functional, cell-based; remark: listed apart in the source
HeLa [4] = assay: viability loss in HeLa cells – cell-based, 24 h, cherry-picked samples, cytotoxicity control, dose response (AID 504726); format: functional; conditions: Homo sapiens;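 note: potency for cytotoxicity as loss of luminescence signal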
[5] = viability of uninfected HEp-2 cells – cell-based, HTS, cytotoxicity control for RSV inhibitor project, dose response (AID 2410); format: functional; conditions: human respiratory syncytial virus
[6] = NIH3T3 cell viability loss – ATP luminescence, mouse fibroblasts, counter-screen, dose response (AID 2010); format: functional, cell-based;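 note: cells exposed to compound for about 90 hours before reading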
[7] = target: T1, RNA-binding protein pos-1 (Caenorhabditis elegans, UniProt G5EF15); assay: disruptors of C. elegans POS-1 RNA interaction – biochemical, fluorescence polarization, dose response (AID 1964);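 note: purified POS-1 fused to maltose binding protein made in E. coli; potency of compounds blocking POS-1 binding to fluorescent RNA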
T1 sequence (G5EF15 whole entry): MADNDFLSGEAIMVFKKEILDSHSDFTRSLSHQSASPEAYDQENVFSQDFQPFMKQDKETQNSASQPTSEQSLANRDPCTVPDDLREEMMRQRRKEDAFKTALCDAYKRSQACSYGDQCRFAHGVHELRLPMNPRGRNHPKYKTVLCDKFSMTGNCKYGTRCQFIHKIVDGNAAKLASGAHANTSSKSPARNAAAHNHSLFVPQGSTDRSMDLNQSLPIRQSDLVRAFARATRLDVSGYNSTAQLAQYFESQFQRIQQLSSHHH

HeLa [8] = assay: ATP-based viability loss in HeLa cells – cell-based, CellTiter-Glo luminescence, cherry-pick samples, cytotoxicity control for MITF activator project, dose response (AID 540259); format: functional; conditions: Homo sapiens
[9] = Trypanosoma cruzi growth suppression in host cells – NIH3T3 host cells, beta-gal luminescence, confirmation (AID 2044); format: functional, cell-based;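 note: intracellular parasites grown in NIH/3T3 mouse fibroblasts as host cells; luminescent beta-galactosidase reporter signal from transgenic T. cruzi replicating inside host cells; inhibitors lower the luminescence signal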
[10] = target: T2, Zinc finger protein mex-5 (Caenorhabditis elegans, UniProt Q9XUB2); assay: potency of MEX-5 RNA-binding blockers – biochemical, C. elegans, fluorescence polarization, dose response (AID 1960)
T2 sequence (Q9XUB2 whole entry): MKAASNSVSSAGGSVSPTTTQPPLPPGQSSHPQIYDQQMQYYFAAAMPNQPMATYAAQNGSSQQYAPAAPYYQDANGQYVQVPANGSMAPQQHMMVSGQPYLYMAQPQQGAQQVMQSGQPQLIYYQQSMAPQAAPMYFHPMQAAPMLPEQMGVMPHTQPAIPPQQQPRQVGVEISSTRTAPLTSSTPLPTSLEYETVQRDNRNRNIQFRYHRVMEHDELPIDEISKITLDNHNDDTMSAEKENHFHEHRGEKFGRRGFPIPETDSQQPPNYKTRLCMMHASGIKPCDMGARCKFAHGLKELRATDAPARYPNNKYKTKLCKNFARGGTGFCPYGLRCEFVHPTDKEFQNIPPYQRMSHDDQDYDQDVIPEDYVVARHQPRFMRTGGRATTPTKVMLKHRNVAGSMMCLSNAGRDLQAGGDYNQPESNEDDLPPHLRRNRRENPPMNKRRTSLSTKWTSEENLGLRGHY

cells [11] = assay: cells
Vero [12] = assay: cells; format: functional; conditions: Chlorocebus sabaeus
Vero [13] = assay: cells; format: functional, cell-based; conditions: Chlorocebus sabaeus
[14] = target: T3, Ubiquitin-conjugating enzyme E2 N (Homo sapiens, UniProt P61088); format: functional
T3 sequence (P61088 whole entry): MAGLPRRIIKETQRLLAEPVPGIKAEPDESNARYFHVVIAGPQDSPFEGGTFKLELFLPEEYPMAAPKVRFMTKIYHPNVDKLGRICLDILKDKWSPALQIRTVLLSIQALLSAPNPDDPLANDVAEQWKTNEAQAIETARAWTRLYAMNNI

cells [15] = assay: cells; remark: listed apart in the source
[16] = target: T3, Ubiquitin-conjugating enzyme E2 N; format: functional; remark: listed apart in the source
Bcl-2-related protein A1 = target: T4, Bcl-2-related protein A1 (Mus musculus, UniProt Q07440); format: functional;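 note: confirmatory dose–response counterscreen on Bfl-1, used to check hits from a UBC13 polyubiquitin inhibitor campaign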
T4 sequence (Q07440 whole entry): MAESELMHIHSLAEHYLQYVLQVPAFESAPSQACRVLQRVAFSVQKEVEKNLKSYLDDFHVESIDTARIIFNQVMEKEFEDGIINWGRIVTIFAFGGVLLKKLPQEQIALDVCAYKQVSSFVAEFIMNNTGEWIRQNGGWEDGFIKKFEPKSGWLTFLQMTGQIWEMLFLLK

[17] = M. tuberculosis H37Rv growth inhibitors, H37Rv strain (AID 1626); format: functional
[18] = target: DNA dC->dU-editing enzyme APOBEC-3G (Homo sapiens, UniProt Q9HC16); format: functional;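 note: Dose-response counterscreen measuring inhibition of APOBEC3G DNA deaminase activity, run while confirming APOBEC3A inhibitors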
[19] = target: DNA dC->dU-editing enzyme APOBEC-3A (Homo sapiens, UniProt P31941); assay: Dose Response confirmation of small molecule APOBEC3A DNA Deaminase Inhibitors via a fluorescence-based single-stranded DNA deaminase assay. [Related pubchem assays (depositor defined):AID493011, AID493024]; format: functional
[20] = target: Polyadenylate-binding protein 1 (Homo sapiens, UniProt P11940); assay: blockers of PABP interaction with poly(A) – biochemical, fluorescence polarization, […] (AID 2014)
[21] = target: Eukaryotic translation initiation factor 4H (Homo sapiens, UniProt Q15056); assay: eIF4H binding inhibition – biochemical, uHTS, fluorescence polarization, translation initiation inhibitor project, primary screen (AID 2012)
[22] = target: Luciferin 4-monooxygenase (Photinus pyralis, UniProt P08659); assay: inhibition of purified Photinus pyralis luciferase – biochemical, luminescence, dose response (AID 1891)
[23] = target: Cyclin-dependent kinase 5/CDK5 activator 1 (Homo sapiens, UniProt Q00535); assay: blockade of human CDK5 activity – biochemical, cherry-picked samples, set 2, dose response (AID 504545)
Hexokinase HKDC1 = target: T5, Hexokinase HKDC1 (Homo sapiens, UniProt Q2TB90); assay: inhibition of HKDC1 glucose phosphorylation – biochemical, W721R variant, dose response (AID 504729); format: functional
T5 sequence (Q2TB90 whole entry): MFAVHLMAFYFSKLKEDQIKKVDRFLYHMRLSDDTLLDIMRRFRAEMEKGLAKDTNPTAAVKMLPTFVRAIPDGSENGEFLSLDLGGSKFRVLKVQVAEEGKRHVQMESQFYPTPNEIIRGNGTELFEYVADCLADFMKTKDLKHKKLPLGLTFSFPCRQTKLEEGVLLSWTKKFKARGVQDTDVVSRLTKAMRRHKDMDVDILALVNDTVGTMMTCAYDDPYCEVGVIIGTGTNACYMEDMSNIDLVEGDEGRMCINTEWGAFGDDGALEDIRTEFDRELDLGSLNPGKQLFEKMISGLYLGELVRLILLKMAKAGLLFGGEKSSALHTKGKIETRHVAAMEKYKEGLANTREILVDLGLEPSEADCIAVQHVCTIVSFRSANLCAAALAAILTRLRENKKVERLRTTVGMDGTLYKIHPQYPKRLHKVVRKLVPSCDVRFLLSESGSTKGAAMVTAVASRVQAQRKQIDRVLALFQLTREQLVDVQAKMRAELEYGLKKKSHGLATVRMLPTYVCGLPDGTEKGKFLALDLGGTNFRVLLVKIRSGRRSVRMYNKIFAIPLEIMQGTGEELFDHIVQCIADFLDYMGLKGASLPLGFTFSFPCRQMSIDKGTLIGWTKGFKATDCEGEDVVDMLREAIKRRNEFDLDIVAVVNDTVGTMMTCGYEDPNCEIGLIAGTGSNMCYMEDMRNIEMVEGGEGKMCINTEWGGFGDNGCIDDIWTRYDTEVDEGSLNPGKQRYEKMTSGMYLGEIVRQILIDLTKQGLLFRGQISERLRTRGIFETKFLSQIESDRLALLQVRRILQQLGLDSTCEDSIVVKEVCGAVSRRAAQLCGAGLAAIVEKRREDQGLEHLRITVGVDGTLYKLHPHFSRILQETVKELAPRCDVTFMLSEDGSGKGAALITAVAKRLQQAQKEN

Cytochrome P450 2C19 = Cytochrome P450 2C19 (Homo sapiens, UniProt P33261); assay: Cytochrome panel assay with activity outcomes. Panel member name: p450-cyp2c19 Compounds with AC50 equal or less than 10 uM are considered active; format: functional; conditions: read-out: AC50
Cytochrome P450 3A4 = Cytochrome P450 3A4 (Homo sapiens, UniProt P08684);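 note: CYP3A4 tested as one member of a cytochrome P450 panel screen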
HeLa [24] = assay: Cytotoxicity counterscreen assay for transcriptional activators of heat shock protein 70 (Hsp70). [Related pubchem assays: 1203, 1252 ]; format: functional; conditions: Homo sapiens
Cytochrome P450 2D6 = Cytochrome P450 2D6 (Homo sapiens, UniProt P10635);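 note: CYP2D6 member of a cytochrome P450 panel assay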
[25] = target: Induced myeloid leukemia cell differentiation protein Mcl-1 (Homo sapiens, UniProt Q07820); format: functional
[26] = target: FAD-linked sulfhydryl oxidase ALR (Homo sapiens, UniProt P55789); assay: ALR-catalysed DTT oxidation blockers – biochemical, H2O2 detection, luminescence, cherry-pick, dose response (AID 493248)
Genome polyprotein = Genome polyprotein (dengue virus type 2, UniProt P29990); assay: flavivirus cap methylation enzyme inhibition – biochemical, confirmation dose response, primary screen (AID 588689); format: functional
[27] = CCR5-tropic HIV-1 fusion blockers – cell-based, CCR5-tropic Env, dose response (AID 2279); format: functional
[28] = Luminescence Cell-Based Dose Confirmation HTS to Identify Inhibitors of Platelet Dense Granule Release. [Related pubchem assays: 1663 (Primary HTS), 1678 (Summary of Project)]; format: functional
[29] = target: T6, Rac GTPase-activating protein 1 (Homo sapiens, UniProt Q9H0H5); assay: blockers of MgcRacGAP-driven Rac1 GTP hydrolysis – biochemical, ADP Hunter fluorescence, primary and confirmatory, confirmation (AID 624330); format: functional
T6 sequence (Q9H0H5 whole entry): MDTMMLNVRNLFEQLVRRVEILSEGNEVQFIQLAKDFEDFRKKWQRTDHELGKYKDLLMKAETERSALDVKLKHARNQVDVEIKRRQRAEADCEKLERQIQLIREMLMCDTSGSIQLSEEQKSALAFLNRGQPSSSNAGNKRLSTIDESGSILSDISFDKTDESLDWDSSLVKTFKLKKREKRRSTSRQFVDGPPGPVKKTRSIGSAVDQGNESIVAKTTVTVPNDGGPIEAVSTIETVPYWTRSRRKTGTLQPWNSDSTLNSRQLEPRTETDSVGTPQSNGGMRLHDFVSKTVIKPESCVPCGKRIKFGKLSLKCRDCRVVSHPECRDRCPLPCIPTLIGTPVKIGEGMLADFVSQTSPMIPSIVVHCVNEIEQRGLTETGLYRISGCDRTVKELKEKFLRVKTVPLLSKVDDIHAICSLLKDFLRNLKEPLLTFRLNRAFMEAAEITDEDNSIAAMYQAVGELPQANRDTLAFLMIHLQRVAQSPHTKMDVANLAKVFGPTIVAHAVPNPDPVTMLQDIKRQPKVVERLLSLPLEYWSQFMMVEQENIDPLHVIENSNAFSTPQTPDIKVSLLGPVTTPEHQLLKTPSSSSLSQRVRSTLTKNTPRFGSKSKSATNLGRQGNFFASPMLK

Chain of Cyclin-dependent kinase 5/CDK5 activator 1 (Q00535 whole entry): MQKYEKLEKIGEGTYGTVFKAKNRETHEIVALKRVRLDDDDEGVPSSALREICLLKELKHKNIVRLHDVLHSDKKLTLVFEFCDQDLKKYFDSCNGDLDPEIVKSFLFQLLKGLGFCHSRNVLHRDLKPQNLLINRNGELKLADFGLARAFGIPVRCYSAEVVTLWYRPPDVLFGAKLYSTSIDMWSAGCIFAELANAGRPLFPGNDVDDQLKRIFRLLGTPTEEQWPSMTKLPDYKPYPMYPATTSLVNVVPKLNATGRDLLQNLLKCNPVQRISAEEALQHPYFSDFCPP
Chain of Cyclin-dependent kinase 5/CDK5 activator 1 (Q15078 whole entry, further chain): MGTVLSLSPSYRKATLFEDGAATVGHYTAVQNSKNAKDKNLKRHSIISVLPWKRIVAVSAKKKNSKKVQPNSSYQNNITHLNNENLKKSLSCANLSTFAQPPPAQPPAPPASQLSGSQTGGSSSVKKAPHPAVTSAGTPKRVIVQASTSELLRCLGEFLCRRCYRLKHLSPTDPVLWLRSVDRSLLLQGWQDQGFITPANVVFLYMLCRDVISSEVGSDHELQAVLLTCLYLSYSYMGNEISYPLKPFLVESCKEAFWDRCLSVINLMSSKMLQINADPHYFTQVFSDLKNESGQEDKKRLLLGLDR
Chain of Luciferin 4-monooxygenase (P08659 whole entry): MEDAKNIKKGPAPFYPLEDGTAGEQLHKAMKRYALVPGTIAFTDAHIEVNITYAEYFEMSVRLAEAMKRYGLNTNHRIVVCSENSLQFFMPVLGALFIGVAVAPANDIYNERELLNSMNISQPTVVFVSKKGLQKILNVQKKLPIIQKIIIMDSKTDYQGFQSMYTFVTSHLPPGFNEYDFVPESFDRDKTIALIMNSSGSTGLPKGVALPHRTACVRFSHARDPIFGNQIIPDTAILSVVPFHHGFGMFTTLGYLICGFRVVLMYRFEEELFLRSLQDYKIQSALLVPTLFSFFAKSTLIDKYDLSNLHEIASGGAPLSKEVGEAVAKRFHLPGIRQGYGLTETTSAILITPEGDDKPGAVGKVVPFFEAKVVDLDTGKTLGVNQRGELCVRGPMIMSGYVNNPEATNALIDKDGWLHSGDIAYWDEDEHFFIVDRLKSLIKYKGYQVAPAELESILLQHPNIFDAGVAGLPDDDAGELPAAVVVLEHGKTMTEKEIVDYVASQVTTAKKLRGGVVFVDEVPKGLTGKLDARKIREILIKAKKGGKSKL
Chain of Cytochrome P450 2C19 (P33261 whole entry): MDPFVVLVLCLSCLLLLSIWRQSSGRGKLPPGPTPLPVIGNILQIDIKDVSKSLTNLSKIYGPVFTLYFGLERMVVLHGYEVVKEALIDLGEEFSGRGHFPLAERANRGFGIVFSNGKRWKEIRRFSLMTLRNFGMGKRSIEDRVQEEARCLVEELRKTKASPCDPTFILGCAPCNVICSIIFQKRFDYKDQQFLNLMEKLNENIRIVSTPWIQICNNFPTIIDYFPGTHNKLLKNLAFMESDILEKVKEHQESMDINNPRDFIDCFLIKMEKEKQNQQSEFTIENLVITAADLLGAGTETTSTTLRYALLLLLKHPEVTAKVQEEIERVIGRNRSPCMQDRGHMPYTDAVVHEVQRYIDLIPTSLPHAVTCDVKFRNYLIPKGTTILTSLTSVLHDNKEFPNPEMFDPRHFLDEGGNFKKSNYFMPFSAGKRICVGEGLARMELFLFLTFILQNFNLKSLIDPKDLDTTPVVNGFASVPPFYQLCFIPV
Chain of Cytochrome P450 2D6 (P10635 whole entry): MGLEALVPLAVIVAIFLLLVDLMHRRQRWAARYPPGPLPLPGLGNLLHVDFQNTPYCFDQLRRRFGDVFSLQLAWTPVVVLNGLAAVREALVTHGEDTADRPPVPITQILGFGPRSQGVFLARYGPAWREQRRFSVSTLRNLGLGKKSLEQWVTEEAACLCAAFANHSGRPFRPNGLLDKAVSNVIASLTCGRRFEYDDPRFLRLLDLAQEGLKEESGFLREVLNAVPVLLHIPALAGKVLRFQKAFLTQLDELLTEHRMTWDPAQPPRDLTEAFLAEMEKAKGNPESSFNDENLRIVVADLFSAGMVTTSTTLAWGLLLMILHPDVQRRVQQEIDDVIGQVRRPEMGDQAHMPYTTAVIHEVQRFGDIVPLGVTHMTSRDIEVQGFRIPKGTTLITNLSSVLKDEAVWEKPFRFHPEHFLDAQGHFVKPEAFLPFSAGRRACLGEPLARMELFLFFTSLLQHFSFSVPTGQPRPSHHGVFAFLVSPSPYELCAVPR
Chain of Polyadenylate-binding protein 1 (P11940 whole entry): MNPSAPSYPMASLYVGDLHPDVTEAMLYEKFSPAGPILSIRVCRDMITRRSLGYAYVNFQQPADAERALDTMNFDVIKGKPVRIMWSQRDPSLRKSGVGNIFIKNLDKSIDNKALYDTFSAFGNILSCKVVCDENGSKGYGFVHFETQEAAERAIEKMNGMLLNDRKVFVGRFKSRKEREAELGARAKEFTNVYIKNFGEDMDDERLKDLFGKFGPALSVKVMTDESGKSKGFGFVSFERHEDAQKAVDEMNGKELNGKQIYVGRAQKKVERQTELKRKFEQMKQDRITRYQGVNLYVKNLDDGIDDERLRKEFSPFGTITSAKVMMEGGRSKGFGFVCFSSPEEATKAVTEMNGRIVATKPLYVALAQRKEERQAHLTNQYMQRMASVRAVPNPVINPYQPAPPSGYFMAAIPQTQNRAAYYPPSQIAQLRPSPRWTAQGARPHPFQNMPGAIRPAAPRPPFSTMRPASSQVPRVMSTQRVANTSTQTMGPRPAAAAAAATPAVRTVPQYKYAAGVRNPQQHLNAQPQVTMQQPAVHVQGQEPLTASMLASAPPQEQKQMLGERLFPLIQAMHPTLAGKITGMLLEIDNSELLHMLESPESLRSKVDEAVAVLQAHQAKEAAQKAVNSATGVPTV
Chain of Genome polyprotein (P29990 2492-3391 limits assumed): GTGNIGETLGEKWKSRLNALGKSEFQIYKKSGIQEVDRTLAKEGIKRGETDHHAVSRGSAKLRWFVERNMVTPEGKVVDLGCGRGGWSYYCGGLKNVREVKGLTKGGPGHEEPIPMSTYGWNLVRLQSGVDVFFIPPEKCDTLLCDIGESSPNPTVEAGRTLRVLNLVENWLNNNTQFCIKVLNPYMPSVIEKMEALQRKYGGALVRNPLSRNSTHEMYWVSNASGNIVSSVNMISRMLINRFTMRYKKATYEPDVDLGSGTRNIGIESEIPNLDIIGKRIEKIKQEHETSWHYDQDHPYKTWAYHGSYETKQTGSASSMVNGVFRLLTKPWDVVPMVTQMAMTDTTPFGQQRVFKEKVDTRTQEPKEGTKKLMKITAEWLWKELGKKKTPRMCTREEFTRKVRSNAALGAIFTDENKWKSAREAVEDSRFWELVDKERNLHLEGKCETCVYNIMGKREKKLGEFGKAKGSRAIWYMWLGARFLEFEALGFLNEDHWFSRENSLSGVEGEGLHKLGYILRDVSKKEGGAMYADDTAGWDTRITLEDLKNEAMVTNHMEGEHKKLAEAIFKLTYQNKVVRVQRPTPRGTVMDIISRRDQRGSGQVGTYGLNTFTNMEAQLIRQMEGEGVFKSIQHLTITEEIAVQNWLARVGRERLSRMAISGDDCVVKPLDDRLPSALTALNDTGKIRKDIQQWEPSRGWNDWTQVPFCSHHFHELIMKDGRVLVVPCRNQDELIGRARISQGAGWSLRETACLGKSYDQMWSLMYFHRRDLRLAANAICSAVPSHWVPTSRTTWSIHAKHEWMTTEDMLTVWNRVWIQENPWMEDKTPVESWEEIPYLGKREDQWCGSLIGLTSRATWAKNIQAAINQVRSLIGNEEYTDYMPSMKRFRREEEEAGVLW
Chain of FAD-linked sulfhydryl oxidase ALR (P55789 whole entry): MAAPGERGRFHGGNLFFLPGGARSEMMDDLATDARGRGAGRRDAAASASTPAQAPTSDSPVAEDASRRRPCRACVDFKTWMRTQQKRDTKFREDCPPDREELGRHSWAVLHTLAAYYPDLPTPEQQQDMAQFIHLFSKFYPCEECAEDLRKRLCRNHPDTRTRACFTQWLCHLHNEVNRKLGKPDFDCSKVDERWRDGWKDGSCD
Chain of DNA dC->dU-editing enzyme APOBEC-3G (Q9HC16 whole entry): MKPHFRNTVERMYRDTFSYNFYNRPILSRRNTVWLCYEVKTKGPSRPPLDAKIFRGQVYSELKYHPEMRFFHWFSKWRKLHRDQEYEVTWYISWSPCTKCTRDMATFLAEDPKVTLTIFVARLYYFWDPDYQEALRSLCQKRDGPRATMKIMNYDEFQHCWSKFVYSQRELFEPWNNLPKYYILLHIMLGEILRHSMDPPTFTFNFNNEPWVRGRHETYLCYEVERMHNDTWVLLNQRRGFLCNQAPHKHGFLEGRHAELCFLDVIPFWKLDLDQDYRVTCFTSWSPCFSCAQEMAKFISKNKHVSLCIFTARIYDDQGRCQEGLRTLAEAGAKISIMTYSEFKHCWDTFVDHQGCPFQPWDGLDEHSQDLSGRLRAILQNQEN
Chain of DNA dC->dU-editing enzyme APOBEC-3A (P31941 whole entry): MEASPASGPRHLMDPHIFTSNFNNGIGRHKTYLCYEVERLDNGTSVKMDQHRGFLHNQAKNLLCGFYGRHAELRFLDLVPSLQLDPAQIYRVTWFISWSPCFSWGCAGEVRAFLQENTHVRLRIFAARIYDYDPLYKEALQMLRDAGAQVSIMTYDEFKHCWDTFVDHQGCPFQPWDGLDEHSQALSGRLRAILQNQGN

## CCC(=O)NC(=S)Nc1ccc(NC(=O)c2cccc([N+](=O)[O-])c2C)cc1
[1]
  CC50: > 40 µM (active)
Cells [2]
  EC50: > 350 µM (not active)
Cells [3]
  EC50: > 350 µM (not active)

## O=C(c1cnn2c(-c3ccccc3)cc(-c3ccccc3)nc12)N1CCN(Cc2ccccc2)CC1
HeLa [4]
  AC50: 62.6 µM (active)
[5]
  CC50: 15.5 µM (active)

## CN1CCc2c(sc(NC(=O)c3ccc4ccccc4c3)c2C(N)=O)C1
[6]
  EC50: 9.24 µM (active)
HeLa [4]
  AC50: 35.3 µM (active)
[7]
  EC50: > 300 µM (not active)
HeLa [8]
  AC50: 24.5 µM (active)
[9]
  EC50: 3.25 µM (active)
[10]
  EC50: > 300 µM (inconclusive)

## COCCNC(=O)c1cc(-c2ccc(-c3ccccc3)cc2)nc2ccccc12
Cells [11]
  IC50: 4.81 µM (active)
Vero [12]
  CC50: 19.2 µM (active)
[5]
  CC50: 15.2 µM (active)
Vero [13]
  IC50: 7.44 µM (active)

## CN(C)CCCN(C(=O)c1ccc(S(=O)(=O)N2CCCCCC2)cc1)c1nc2cc3c(cc2s1)OCCO3
[6]
  EC50: > 60 µM (not active)
[14]
  IC50: 4.41 µM (active)
Cells [15]
  EC50: 0.201 µM (active)
[16]
  IC50: 4.63 µM (active)
[9]
  EC50: < 0.1 µM (active)
Bcl-2-related protein A1
  IC50: > 20 µM (inactive)

## O=C(NCc1ccco1)c1cc2n(n1)C(C(F)(F)F)CC(c1ccc(Cl)c(Cl)c1)N2 (centres undefined)
[6]
  EC50: 7.67 µM (active)
[9]
  EC50: 3.86 µM (active)
[17]
  IC50: > 100 µM (active)

## C[N+]12CCCCC1[C@@H](CO)CCC2 (some centres undefined)
[18]
  IC50: 4.19 µM (active)
[19]
  IC50: 2.79 µM (active)
[20]
  IC50: 5.51 µM (active)
[21]
  IC50: > 100 µM (inactive)

## CCC(C)NC(=O)c1cc2cc3ccc(OC)cc3nc2s1 (centres undefined)
Cells [11]
  IC50: 10.8 µM (active)
[5]
  CC50: 44.8 µM (active)

## COc1cccc(C(=O)ON=C(N)c2ccccn2)c1
[22]
  EC50: 2.07 µM (active)
[23]
  AC50: 12.9 µM (active)

## CC1=NOC(=O)/C1=C\c1ccc(-c2ccc(Cl)cc2Cl)o1
Hexokinase HKDC1
  IC50: 20.6 µM (inactive)
Cytochrome P450 2C19
  AC50: 7.94 µM (inconclusive)
Cytochrome P450 3A4
  AC50: 17.8 µM (inconclusive)
HeLa [24]
  CC50: > 3.67 µM (not active)
Vero [12]
  CC50: > 25 µM (active)
Cytochrome P450 2D6
  AC50: 14.1 µM (inconclusive)
Vero [13]
  IC50: > 25 µM (active)
[25]
  IC50: 1.7 µM (active)

## CC(C)n1cnc2c(Nc3ccc(C(=O)O)cc3)nc(Cl)nc21
[23]
  AC50: 22.2 µM (active)

## COC(=O)c1sc(-c2ccc(C(C)(C)C)cc2)cc1NC(=O)c1ccccc1C(=O)O
[26]
  AC50: 0.087 µM (active)
Genome polyprotein
  IC50: 35.9 µM (active)
[27]
  IC50: 49.9 µM (active)

## COc1cc(OC)c2cc[nH]c2c1
[22]
  EC50: > 112 µM (not active)
[28]
  EC50: > 112 µM (not active)
[29]
  IC50: 108 µM (active)
[17]
  IC50: > 100 µM (active)

## CN(C)c1ccc(/C=N/NC(=O)c2cc(-c3ccc4c(c3)OCO4)[nH]n2)cc1
[1]
  CC50: 30.2 µM (active)
